Reference: the supplement of paper PMC10307832

Columns and labels:
Assay in all cases: relative viability (nuclei count vs DMSO), 5 days (fraction); higher = more cells survive
EMC-BAC-2 = system: EMC-BAC-2
Outline: (§1)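 Lung cancer cell lines were seeded in 1536-well plates and dosed by pin tool the next day, with either a single drug or a fixed anchor-drug dose combined with five library-drug doses (not always all listed) spaced in √10 steps. Five days later, one step fixed the cells and stained their nuclei (final 0.05% Triton X-100, 1% formaldehyde, 1 ug/ml Hoechst), and nuclei were counted on 4× images. Relative viability is the nuclei count in treated wells divided by the count in vehicle wells, and each value is the median of duplicate plates.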

NCI-H727 = system: NCI-H727
Outline: as §1

NCI-H1437 = system: NCI-H1437
Outline: as §1

NCI-H2009 = system: NCI-H2009
Outline: as §1

NCI-H2023 = system: NCI-H2023
Outline: as §1

NCI-H2170 = system: NCI-H2170
Outline: as §1

NCI-H647 = system: NCI-H647
Outline: as §1

NCI-H460 = system: NCI-H460
Outline: as §1

NCI-H2405 = system: NCI-H2405
Outline: as §1

EPLC-272H = system: EPLC-272H
Outline: as §1

NCI-H520 = system: NCI-H520
Outline: as §1

LOU-NH91 = system: LOU-NH91
Outline: as §1

NCI-H2347 = system: NCI-H2347
Outline: as §1

HOP-62 = system: HOP-62
Outline: as §1

NCI-H2126 = system: NCI-H2126
Outline: as §1

HCC-44 = system: HCC-44
Outline: as §1

NCI-H23 = system: NCI-H23
Outline: as §1

ChaGo-K-1 = system: ChaGo-K-1
Outline: as §1

NCI-H441 = system: NCI-H441
Outline: as §1

NCI-H1793 = system: NCI-H1793
Outline: as §1

LCLC-103H = system: LCLC-103H
Outline: as §1

NCI-H650 = system: NCI-H650
Outline: as §1

SW 1573 = system: SW 1573
Outline: as §1

## Cc1cnc(-c2cnc(NCCNc3ccc(C#N)cn3)nc2-c2ccc(Cl)cc2Cl)[nH]1 + CC(=O)c1c(C)c2cnc(Nc3ccc(N4CCNCC4)cn3)nc2n(C2CCCC2)c1=O [Palbociclib] (partner 0.5 µM)
EMC-BAC-2; first compound 0.08 µM
  relative viability: 0.544
EMC-BAC-2; first compound 0.253 µM
  relative viability: 0.523
EMC-BAC-2; first compound 0.8 µM
  relative viability: 0.543
EMC-BAC-2; first compound 2.53 µM
  relative viability: 0.512
NCI-H727; first compound 0.08 µM
  relative viability: 0.659
NCI-H727; first compound 0.253 µM
  relative viability: 0.637
NCI-H727; first compound 0.8 µM
  relative viability: 0.644
NCI-H727; first compound 2.53 µM
  relative viability: 0.663
NCI-H1437; first compound 0.08 µM
  relative viability: 0.355
NCI-H1437; first compound 0.253 µM
  relative viability: 0.303
NCI-H1437; first compound 0.8 µM
  relative viability: 0.281
NCI-H1437; first compound 2.53 µM
  relative viability: 0.285
NCI-H2009; first compound 0.08 µM
  relative viability: 0.256
NCI-H2009; first compound 0.253 µM
  relative viability: 0.208
NCI-H2009; first compound 0.8 µM
  relative viability: 0.29
NCI-H2009; first compound 2.53 µM
  relative viability: 0.225
NCI-H2023; first compound 0.08 µM
  relative viability: 0.41
NCI-H2023; first compound 0.253 µM
  relative viability: 0.344
NCI-H2023; first compound 0.8 µM
  relative viability: 0.387
NCI-H2023; first compound 2.53 µM
  relative viability: 0.541
NCI-H2170; first compound 0.08 µM
  relative viability: 0.429
NCI-H2170; first compound 0.8 µM
  relative viability: 0.383
NCI-H2170; first compound 2.53 µM
  relative viability: 0.371
NCI-H647; first compound 0.08 µM
  relative viability: 0.434
NCI-H647; first compound 0.253 µM
  relative viability: 0.303
NCI-H647; first compound 0.8 µM
  relative viability: 0.419
NCI-H647; first compound 2.53 µM
  relative viability: 0.393
NCI-H460; first compound 0.08 µM
  relative viability: 0.154
NCI-H460; first compound 0.253 µM
  relative viability: 0.0849
NCI-H460; first compound 0.8 µM
  relative viability: 0.135
NCI-H460; first compound 2.53 µM
  relative viability: 0.146
NCI-H2405; first compound 0.08 µM
  relative viability: 0.571
NCI-H2405; first compound 0.253 µM
  relative viability: 0.452
NCI-H2405; first compound 0.8 µM
  relative viability: 0.57
NCI-H2405; first compound 2.53 µM
  relative viability: 0.495
EPLC-272H; first compound 0.08 µM
  relative viability: 0.345
EPLC-272H; first compound 0.253 µM
  relative viability: 0.323
EPLC-272H; first compound 0.8 µM
  relative viability: 0.309
EPLC-272H; first compound 2.53 µM
  relative viability: 0.373
NCI-H520; first compound 0.08 µM
  relative viability: 0.332
NCI-H520; first compound 0.253 µM
  relative viability: 0.202
NCI-H520; first compound 0.8 µM
  relative viability: 0.224
NCI-H520; first compound 2.53 µM
  relative viability: 0.265
LOU-NH91; first compound 0.08 µM
  relative viability: 0.547
LOU-NH91; first compound 0.253 µM
  relative viability: 0.515
LOU-NH91; first compound 0.8 µM
  relative viability: 0.581
LOU-NH91; first compound 2.53 µM
  relative viability: 0.527
NCI-H2347; first compound 0.08 µM
  relative viability: 0.411
NCI-H2347; first compound 0.253 µM
  relative viability: 0.406
NCI-H2347; first compound 0.8 µM
  relative viability: 0.438
NCI-H2347; first compound 2.53 µM
  relative viability: 0.493
HOP-62; first compound 0.08 µM
  relative viability: 0.531
HOP-62; first compound 0.253 µM
  relative viability: 0.426
HOP-62; first compound 0.8 µM
  relative viability: 0.446
HOP-62; first compound 2.53 µM
  relative viability: 0.45
NCI-H2126; first compound 0.08 µM
  relative viability: 0.369
NCI-H2126; first compound 0.253 µM
  relative viability: 0.355
NCI-H2126; first compound 0.8 µM
  relative viability: 0.331
NCI-H2126; first compound 2.53 µM
  relative viability: 0.341
HCC-44; first compound 0.08 µM
  relative viability: 0.957
HCC-44; first compound 0.253 µM
  relative viability: 0.931
HCC-44; first compound 0.8 µM
  relative viability: 0.97
HCC-44; first compound 2.53 µM
  relative viability: 0.985
NCI-H23; first compound 0.08 µM
  relative viability: 0.378
NCI-H23; first compound 0.253 µM
  relative viability: 0.49
NCI-H23; first compound 0.8 µM
  relative viability: 0.515
NCI-H23; first compound 2.53 µM
  relative viability: 0.616
ChaGo-K-1; first compound 0.08 µM
  relative viability: 0.929
ChaGo-K-1; first compound 0.253 µM
  relative viability: 0.807
ChaGo-K-1; first compound 0.8 µM
  relative viability: 0.903
ChaGo-K-1; first compound 2.53 µM
  relative viability: 0.833
NCI-H441; first compound 0.08 µM
  relative viability: 0.224
NCI-H441; first compound 0.8 µM
  relative viability: 0.258
NCI-H441; first compound 2.53 µM
  relative viability: 0.185
NCI-H1793; first compound 0.08 µM
  relative viability: 0.336
NCI-H1793; first compound 0.253 µM
  relative viability: 0.288
NCI-H1793; first compound 0.8 µM
  relative viability: 0.282
NCI-H1793; first compound 2.53 µM
  relative viability: 0.386
LCLC-103H; first compound 0.08 µM
  relative viability: 0.516
LCLC-103H; first compound 0.253 µM
  relative viability: 0.475
LCLC-103H; first compound 0.8 µM
  relative viability: 0.426
LCLC-103H; first compound 2.53 µM
  relative viability: 0.507
NCI-H650; first compound 0.08 µM
  relative viability: 0.311
NCI-H650; first compound 0.253 µM
  relative viability: 0.334
NCI-H650; first compound 0.8 µM
  relative viability: 0.317
NCI-H650; first compound 2.53 µM
  relative viability: 0.351
SW 1573; first compound 0.08 µM
  relative viability: 0.387
SW 1573; first compound 0.253 µM
  relative viability: 0.336
SW 1573; first compound 0.8 µM
  relative viability: 0.368
SW 1573; first compound 2.53 µM
  relative viability: 0.146
